Test results taken from patent publication US6603044B1, “Phthalamide derivatives, or salt thereof agrohorticultural insecticide, and method for using the same” (Nihon Nohyaku Co., Ltd., priority 1998, dated 2003).

What was measured:
Type in all cases: in vivo
[1] = system: Diamond Back Moth (Plutella xylostella); assay: Insecticidal effect on diamond back moth (Test Example 1); details: 50 ppm; Chinese cabbage seedling with deposited eggs immersed about 30 seconds; 25° C.; six days after the immersion
Summary of the method: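 Chinese cabbage seedlings carrying two-day-old eggs were dipped about 30 seconds in a 50 ppm dilution of formulated compound, air-dried and kept at 25° C. Hatched larvae were counted six days later to derive mortality, with triplicate groups of 10 insects.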

[2] = system: Common Cutworm (Spodoptera Litura); assay: Insecticidal effect on common cutworm (Test Example 2); details: 50 ppm; cabbage leaf immersed about 30 seconds; second-instar larvae; 25° C.; eight days after the inoculation
Source text: Insecticidal Effect on Common Cutworm (Spodoptera Litura)
A piece of cabbage leaf (cultivar; Shikidori) was immersed for about 30 seconds in a liquid chemical prepared by diluting a preparation containing each compound listed in Table 1, 2 or 3 as an active ingredient to adjust the concentration to 50 ppm. After air-dryness, it was placed in a plastic Petri dish with a diameter of 9 cm and inoculated with second-instar larvae of common cutworm, after which the dish was closed and then allowed to stand in a room thermostatted at 25° C. Eight days after the inoculation, the dead and alive were counted. The mortality was calculated according to the following equation and the insecticidal effect was judged according to the criterion shown in Test Example 1. The test was carried out with triplicate groups of 10 insects. [formula]

[3] = system: Smaller tea Tortrix (Adoxophyes sp.); assay: Insecticidal effect on smaller tea tortrix (Test Example 3); details: 50 ppm; tea leaf immersed 30 seconds; larvae; 25° C., humidity 70%; eight days after the inoculation
Procedure: Insecticidal Effect on Smaller tea Tortrix (Adoxophyes sp.)
A leaf of tea tree was immersed for 30 seconds in a liquid chemical containing each compound listed in Table 1, 2 or 3 as an active ingredient to adjust the concentration to 50 ppm. After air-dryness, the leaf was transferred to a plastic dish with a diameter of 9 cm and inoculated with larval smaller tea tortrix. Then, the leaf was allowed to stand in a room thermostatted at 25° C. at a humidity of 70%. Eight days after the inoculation, the dead and alive were counted, and the insecticidal effect was judged according to the same criterion as mentioned in Test Example 1. The test was carried out with triplicate groups of 10 insects.

| Structure (SMILES) | Test Example 1 insecticidal effect (mortality) [1] | Test Example 2 insecticidal effect (mortality) [2] | Test Example 3 insecticidal effect (mortality) [3] |
| --- | --- | --- | --- |
| CCN(CCSC)C(=O)c1c(F)cccc1C(=O)Nc1ccc(C(F)(C(F)(F)F)C(F)(F)F)cc1C [2-5] | A (100) | C (89-80) |  |
| CCN(CCCSC)C(=O)c1c(F)cccc1C(=O)Nc1ccc(C(F)(C(F)(F)F)C(F)(F)F)cc1C [2-6] | A (100) | D (79-50) |  |
| CCN(CSC)C(=O)c1c(Cl)cccc1C(=O)Nc1ccc(C(F)(C(F)(F)F)C(F)(F)F)cc1C [2-8] | A (100) | A (100) |  |
| CCN(CSC)C(=O)c1c(Cl)cccc1C(=O)Nc1ccc(OC(F)(F)C(F)(F)F)cc1C [2-17] | A (100) | A (100) |  |
| Cc1cc(C(F)(F)C(F)(F)F)ccc1NC(=O)c1cccc(I)c1C(=O)N1CCSC1 [3-1] | A (100) | A (100) |  |
| CSCC(C)NC(=O)c1c(C(=O)Nc2ccc(C(F)(C(F)(F)F)C(F)(F)F)cc2C)cccc1S(C)(=O)=O (centres unmarked) [Compound No. 191, N^1-(4-Heptafluoroisopropyl-2-methylphenyl)-N^2-(1-methyl-2-methylthioethyl)-3-methylsulfonylphthalamide] | A (100) | A (100) |  |
| Cc1cc(OC(F)(F)F)ccc1NC(=O)c1cccc(I)c1C(=O)NC(C)CSC(C)C (centres unmarked) [compound 5] | A (100) | A (100) |  |
| Cc1cc(OC(F)(F)F)ccc1NC(=O)c1cccc(I)c1C(=O)NC(C)CSc1ccccn1 (centres unmarked) [compound 74] | A (100) | D (79-50) |  |
| Cc1cc(OC(F)(F)F)ccc1NC(=O)c1cccc(Br)c1C(=O)NC(C)C[S+](C)[O-] (centres unmarked) [compound 87] | A (100) | C (89-80) |  |
| Cc1cc(OC(F)(F)F)ccc1NC(=O)c1cccc(Br)c1C(=O)NC(C)CS(C)(=O)=O (centres unmarked) [compound 88] | A (100) | C (89-80) |  |
| CC(CS(C)(=O)=O)NC(=O)c1c(I)cccc1C(=O)Nc1cc2c(cc1Cl)OC(F)C(F)(F)O2 (centres unmarked) [compound 102] | A (100) | A (100) |  |
| CSCC(C)NC(=O)c1cc(I)ccc1C(=O)Nc1ccc(C(F)(F)C(F)(F)F)cc1C (centres unmarked) [compound 108] | A (100) | A (100) |  |
| CSCC(C)NC(=O)c1cccc(Cl)c1C(=O)Nc1ccc(C(F)(F)C(F)(F)F)cc1C (centres unmarked) [compound 115] | A (100) | A (100) |  |
| Cc1cc(C(F)(F)C(F)(F)F)ccc1NC(=O)c1cccc(I)c1C(=O)NC(C)CCC[S+](C)[O-] (centres unmarked) [compound 133] | A (100) | A (100) |  |
| Cc1cc(OC(F)(F)F)ccc1NC(=O)c1cccc(I)c1C(=O)NC(C)CS(=O)(=O)C(C)(C)C (centres unmarked) [compound 139] | A (100) | A (100) |  |
| Cc1cc(OC(F)(F)F)ccc1NC(=O)c1cccc(I)c1C(=O)NC(C)(C)C[S+](C)[O-] (centres unmarked) [compound 141] | A (100) | A (100) |  |
| Cc1cc(OC(F)(F)F)ccc1NC(=O)c1cccc(Cl)c1C(=O)NC(C)C[S+](C)[O-] (centres unmarked) [compound 143] | A (100) | D (79-50) |  |

| Structure (SMILES) | Test Example 1 insecticidal effect (mortality) [1] | Test Example 2 insecticidal effect (mortality) [2] | Test Example 3 insecticidal effect (mortality) [3] |
| --- | --- | --- | --- |
| Cc1cc(C(F)(F)C(F)(F)F)ccc1NC(=O)c1cccc(Cl)c1C(=O)NC(C)C[S+](C)[O-] (centres unmarked) [compound 144] | A (100) | A (100) |  |
| CSCC(C)NC(=O)c1c(C(=O)Nc2ccc(C(F)(F)C(F)(F)F)cc2C)ccc(F)c1Cl (centres unmarked) [compound 148] | A (100) | C (89-80) |  |
| CSCC(C)NC(=O)c1c(C(=O)Nc2ccc(C(F)(C(F)(F)F)C(F)(F)F)cc2C)ccc(F)c1Cl (centres unmarked) [compound 149] | A (100) | A (100) |  |
| Cc1cc(OC(F)(F)F)ccc1NC(=O)c1ccc(Cl)c(Cl)c1C(=O)NC(C)C[S+](C)[O-] (centres unmarked) [compound 193] | A (100) | D (79-50) |  |
| CSCC(C)(C)NC(=O)c1c(Br)cccc1C(=O)Nc1ccc(OC(F)(F)F)cc1Cl [compound 227] | A (100) | A (100) |  |
| CC(C)(CS(C)(=O)=O)NC(=O)c1c(Br)cccc1C(=O)Nc1ccc(OC(F)(F)F)cc1Cl [compound 228] | A (100) | A (100) |  |
| Cc1nnc(SCC(C)NC(=O)c2c(I)cccc2C(=O)Nc2ccc(C(F)(C(F)(F)F)C(F)(F)F)cc2C)s1 (centres unmarked) [compound 353] | A (100) |  | A (100) |
| CSCC(C)NC(=O)c1c(I)cccc1C(=O)Nc1ccc([Si](C)(C)C)cc1C (centres unmarked) [compound 368] | A (100) |  | A (100) |
| CSCC1(NC(=O)c2c(I)cccc2C(=O)Nc2ccc(C(F)(C(F)(F)F)C(F)(F)F)cc2C)CCCC1 [compound 445] | A (100) |  | A (100) |
| Cc1cc(C(F)(C(F)(F)F)C(F)(F)F)ccc1NC(=O)c1cccc(I)c1C(=O)NC(C)(C)CSCc1ccc(Cl)cc1 [compound 451] | A (100) |  | A (100) |
| Cc1cc(C(F)(C(F)(F)F)C(F)(F)F)ccc1NC(=O)c1cccc(I)c1C(=O)NC(C)CSC(=O)N(C)C (centres unmarked) [compound 461] | A (100) |  | D (79-50) |
| CSCC(C)(C)NC(=O)c1c(I)cccc1C(=O)Nc1ccc(Cc2ccc(Cl)cc2)cc1C [compound 471] | A (100) |  | A (100) |
| CSCC(C)(C)NC(=O)c1c(I)cccc1C(=O)Nc1ccc(C(O)c2ccc(Cl)cc2)cc1C (centres unmarked) [compound 472] | A (100) |  | A (100) |
| CSCC(C)(C)NC(=O)c1c(I)cccc1C(=O)Nc1ccc(Oc2ccc(Cl)cc2)cc1C [compound 473] | A (100) |  | B (99-90) |
| CSCC(C)(C)NC(=O)c1c(I)cccc1C(=O)Nc1ccc(Oc2cccc(Cl)c2)cc1C [compound 474] | A (100) |  | D (79-50) |
| CSCC(C)(C)NC(=O)c1c(I)cccc1C(=O)Nc1ccc(Oc2cccc(C#N)c2)cc1C [compound 475] | A (100) |  | A (100) |
| CSCC(C)(C)NC(=O)c1c(I)cccc1C(=O)Nc1ccc(C(=O)N(C)c2ccc(Cl)cc2)cc1C [compound 480] | A (100) |  | A (100) |
